Measured values published in patent US20200360520A1, “USE OF RIFAMYCIN-QUINOLIZIDONE COUPLING MOLECULE” (priority 2019, published 2020).
Like-named read-outs stand apart in the source and are kept apart here.

Legend:
Type in all cases: cell-based
[1] = system: Mycobacterium kansasii; experiment: MIC by micro broth dilution method (resazurin microtiter assay); conditions: Mycobacterium kansasii, read-out: Minimum Inhibitory Concentration (MIC)
[2] = system: Mycobacterium intracellulare; experiment: as above; conditions: Mycobacterium intracellulare, MH Culture Medium, read-out: Minimum Inhibitory Concentration (MIC)
[3] = system: Mycodacterium chelonei; experiment: as above; conditions: MH Culture Medium; Chelonei (standard strain); read-out: Minimum Inhibitory Concentration (MIC)
[4] = system: Mycobacterium fortuitum; experiment: as above; conditions: Mycolicibacterium fortuitum, MH Culture Medium, read-out: Minimum Inhibitory Concentration (MIC)
[5] = system: Mycobacterium avium; experiment: as above; conditions: read-out: Minimum Inhibitory Concentration (MIC)
[6] = system: Mycobacterium massiliense; experiment: as above; conditions: for MIC: Mycobacteroides abscessus, read-out: Minimum Inhibitory Concentration (MIC)
[7] = system: Mycobacterium avium; experiment: MBC test (plating on agar, CFU count); conditions: Mycobacterium avium, read-out: Minimum Bactericidal Concentration (MBC)
[8] = system: Mycobacterium kansasii; experiment: MBC test (plating on agar, CFU count); conditions: Mycobacterium kansasii, Mycobacterium kansasii, read-out: Minimum Bactericidal Concentration (MBC)
[9] = system: Mycobacterium abscessus; experiment: MBC test (plating on agar, CFU count); conditions: for Minimum Bactericidal Concentration (MBC): MH Culture Medium; for MBC: Mycobacteroides abscessus, 7H9 Culture Medium, read-out: Minimum Bactericidal Concentration (MBC)
[10] = system: Mycobacterium abscessus; experiment: MIC by micro broth dilution method (resazurin microtiter assay); conditions: Mycobacteroides abscessus, read-out: Minimum Inhibitory Concentration (MIC)
[11] = MH Culture Medium, Kansasii (standard strain)
[12] = MH Culture Medium, clinically isolated strain Kansasii (S9)
[13] = MH Culture Medium, clinically isolated strain Kansasii (S199)
[14] = MH Culture Medium, clinically isolated strain Kansasii (S520)
[15] = MH Culture Medium, clinically isolated strain Kansasii (S609)
[16] = Intracellulare (standard strain)
[17] = clinically isolated strain Intracellulare (S90)
[18] = clinically isolated strain Intracellulare (S261)
[19] = clinically isolated strain Intracellulare (S269)
[20] = clinically isolated strain Intracellulare (S290)
[21] = clinically isolated strain Intracellulare (S291)
[22] = clinically isolated strain Intracellulare (S298)
[23] = clinically isolated strain Intracellulare (S541)
[24] = clinically isolated strain Intracellulare (S623)
[25] = clinically isolated strain Intracellulare (ZPS)
[26] = clinically isolated strain intracellulare (S442)
[27] = clinically isolated strain Fortuitum (S103)
[28] = clinically isolated strain Fortuitum (S111)
[29] = MH Culture Medium, Avium (standard strain)
[30] = MH Culture Medium, clinically isolated strain Avium (S31)
[31] = MH Culture Medium, clinically isolated strain Avium (S123)
[32] = MH Culture Medium, clinically isolated strain Avium (S559)
[33] = MH Culture Medium, clinically isolated strain Avium (S568)
[34] = MH Culture Medium, clinically isolated strain Avium (S577)
[35] = MH Culture Medium, clinically isolated strain Avium (S597)
[36] = MH Culture Medium, clinically isolated strain Avium (S602)
[37] = MH Culture Medium, clinically isolated strain Massiliense (D10)
[38] = MH Culture Medium, clinically isolated strain Massiliense (D14)
[39] = MH Culture Medium, clinically isolated strain Massiliense (D18)
[40] = 7H9 Culture Medium, Mycobacterium avium Rough
[41] = 7H9 Culture Medium, Mycobacterium avium Smooth
[42] = MH Culture Medium, Mycobacterium avium Rough
[43] = MH Culture Medium, Mycobacterium avium Smooth
[44] = 7H9 Broth, Mycobacterium avium Rough
[45] = 7H9 Broth, Mycobacterium avium Smooth
[46] = MH Broth, Mycobacterium avium Rough
[47] = MH Broth, Mycobacterium avium Smooth

CO[C@H]1/C=C/O[C@@]2(C)Oc3c(C)c(O)c4c(c3C2=O)C2=NC3(CCN(CC(C)C)CC3)NC2=C(NC(=O)/C(C)=C\C=C\[C@H](C)[C@H](O)[C@@H](C)[C@@H](O)[C@@H](C)[C@H](OC(C)=O)[C@@H]1C)C4=O [Rifabutin, rifabutin]
64 µg/mL: MIC [3] | MIC [6, 38] | MIC [6, 39]
0.5 µg/mL: MIC [2, 22]
32 µg/mL: MIC [4, 27]
0.0625 µg/mL: MIC [1, 11] | MIC [1, 12] | MIC [1, 13] | MIC [1, 14] | MIC [1, 15] | MIC [2, 16] | MIC [2, 19] | MIC [2, 20] | MIC [2, 21] | MIC [2, 25] | MIC [2, 26] | MIC [5, 29] | MIC [5, 30] | MIC [5, 31] | MIC [5, 32] | MIC [5, 33] | MIC [5, 34] | MIC [5, 35] | MIC [5, 36]
0.25 µg/mL: MIC [2, 18] | MIC [2, 24]
0.125 µg/mL: MIC [2, 17] | MIC [2, 23]
> 64 µg/mL: MIC [6, 37]
4 µg/mL: MIC ([4]; Fortuitum (standard strain)) | MIC [4, 28]

NCC[C@H](O)C(=O)N[C@@H]1C[C@H](N)[C@@H](O[C@H]2O[C@H](CN)[C@@H](O)[C@H](O)[C@H]2O)[C@H](O)[C@H]1O[C@H]1O[C@H](CO)[C@@H](O)[C@H](N)[C@H]1O [Amikacin, amikacin]
16 µg/mL: MIC ([1]; 7H9 Broth) | MIC ([10]; MH Broth)
> 64 µg/mL: MBC [7, 40] | MBC [7, 41] | MBC [7, 42] | MBC [7, 43] | MBC ([8]; MH Culture Medium) | MIC [5, 44] | MBC [9]
32 µg/mL: MIC ([10]; 7H9 Broth)
1 µg/mL: MIC ([1]; MH Broth)
64 µg/mL: MBC ([8]; 7H9 Culture Medium)
2 µg/mL: MIC [5, 45] | MIC [5, 46] | MIC [5, 47]
>64 µg/mL: Minimum Bactericidal Concentration (MBC) [9]

CC[C@H]1OC(=O)[C@H](C)[C@@H](O[C@H]2C[C@@](C)(OC)[C@@H](O)[C@H](C)O2)[C@H](C)[C@@H](O[C@@H]2O[C@H](C)C[C@H](N(C)C)[C@H]2O)[C@](C)(OC)C[C@@H](C)C(=O)[C@H](C)[C@@H](O)[C@]1(C)O [Clarithromycin]
0.125 µg/mL: MIC [1, 12] | MIC [1, 15] | MIC [5, 30]
1 µg/mL: MIC [2, 17] | MIC [2, 18] | MIC [2, 19] | MIC [2, 20] | MIC [2, 21] | MIC [2, 25] | MIC [5, 35] | MIC [5, 36]
2 µg/mL: MIC ([1]; 7H9 Broth) | MIC ([1]; MH Broth) | MIC [2, 22] | MIC [2, 26] | MIC [4, 28]
> 64 µg/mL: MBC [7, 40] | MBC [7, 41] | MBC [7, 42] | MBC [7, 43] | MBC ([8]; MH Culture Medium) | MIC [4, 27] | MIC [5, 44] | MIC [5, 46] | MIC [5, 47] | MBC [9]
0.0625 µg/mL: MIC [1, 11] | MIC [1, 13] | MIC [1, 14] | MIC [2, 16] | MIC [5, 29] | Minimum Inhibitory Concentration (MIC) [6, 39] | MIC [6]
0.5 µg/mL: MIC [3] | MIC [5, 31]
16 µg/mL: MIC ([10]; 7H9 Broth)
>64 µg/mL: Minimum Bactericidal Concentration (MBC) [9]
0.25 µg/mL: MIC [5, 32] | MIC [5, 34] | MIC [6, 37]
32 µg/mL: MIC ([4]; Fortuitum (standard strain)) | MIC [5, 45]
4 µg/mL: MIC [2, 24] | MIC [5, 33]
64 µg/mL: MIC [2, 23] | MBC ([8]; 7H9 Culture Medium) | MIC ([10]; MH Broth)

O=C(O)c1cn(C2CC2)c2cc(N3CCNCC3)c(F)cc2c1=O [Ciprofloxacin, ciprofloxacin]
16 µg/mL: MIC ([10]; 7H9 Broth)
> 64 µg/mL: MBC [7, 41] | MBC [7, 43] | MIC ([1]; 7H9 Broth) | MIC ([1]; MH Broth) | MBC ([8]; 7H9 Culture Medium) | MBC ([8]; MH Culture Medium) | MIC [5, 45] | MIC [5, 47] | MBC [9] | MIC ([10]; MH Broth)
>64 µg/mL: Minimum Bactericidal Concentration (MBC) [9]

Cc1ncc([N+](=O)[O-])n1CCO [Metronidazole, metronidazole]
16 µg/mL: MIC [2, 17] | MIC [2, 18] | MIC [2, 19] | MIC [2, 22] | MIC [2, 23] | MIC [3] | MIC ([4]; Fortuitum (standard strain)) | MIC [4, 28] | MIC [5, 30] | MIC [6, 37] | MIC [6, 38]
>64 µg/mL: Minimum Bactericidal Concentration (MBC) [9]
32 µg/mL: MIC [5, 36]
8 µg/mL: MIC [1, 11] | MIC [1, 12] | MIC [1, 13] | MIC [1, 14] | MIC [1, 15] | MIC [2, 16] | MIC [2, 20] | MIC [2, 21] | MIC [2, 24] | MIC [2, 25] | MIC [2, 26] | MIC [4, 27] | MIC [5, 29] | MIC [5, 31] | MIC [5, 32] | MIC [5, 33] | MIC [5, 34] | MIC [5, 35] | MIC [6, 39]
> 64 µg/mL: MBC [7, 41] | MBC [7, 43] | MIC ([1]; 7H9 Broth) | MIC ([1]; MH Broth) | MBC ([8]; 7H9 Culture Medium) | MBC ([8]; MH Culture Medium) | MIC [5, 45] | MIC [5, 47] | MBC [9] | MIC ([10]; 7H9 Broth) | MIC ([10]; MH Broth)

COc1c(N2C[C@@H]3CCCN[C@@H]3C2)c(F)cc2c(=O)c(C(=O)O)cn(C3CC3)c12 [Moxifloxacin, moxifloxacin]
64 µg/mL: MIC [2, 23]
0.25 µg/mL: MIC [2, 16]
32 µg/mL: MIC [6, 37] | MIC [6, 38]
0.0625 µg/mL: MIC [1, 11] | MIC [1, 12] | MIC [1, 13] | MIC [1, 14] | MIC [1, 15]
8 µg/mL: MIC [5, 30] | MIC [6, 39]
1 µg/mL: MIC [2, 21] | MIC [2, 25] | MIC ([4]; Fortuitum (standard strain)) | MIC [4, 27] | MIC [5, 29] | MIC [5, 32]
0.5 µg/mL: MIC [4, 28] | MIC [5, 31] | MIC [5, 33] | MIC [5, 34]
4 µg/mL: MIC [3] | MIC [5, 36]
2 µg/mL: MIC [2, 17] | MIC [2, 18] | MIC [2, 19] | MIC [2, 20] | MIC [2, 22] | MIC [2, 24] | MIC [2, 26] | MIC [5, 35]
